Experimental data reported in paper PMC11393339, “Structure and mechanism of a phosphotransferase system glucose transporter” (Nature Communications, 2024).

Legend:
[1] = biological target: T1, IICB^Glc (Escherichia coli, UniProt P69786); experiment: nanoDSF thermal shift (Tycho NT.[…]); format: binding; conditions: 10 mM ligand, 4 µM protein, 20 mM HEPES-NaOH pH 8.0, 150 mM NaCl, 5 mM β-ME, 0.02% DDM
T1 construct: gene ptsG; full-length wild type with decahistidine tag; overexpressed in E. coli BW25113 delta-arcB delta-ptsG; homodimer; purified in DDM (nanoDSF) or in MSP1E3D1/POPC nanodiscs (cryo-EM, IIB domain not resolved)
T1 sequence (P69786 whole entry, the tested form may be a part): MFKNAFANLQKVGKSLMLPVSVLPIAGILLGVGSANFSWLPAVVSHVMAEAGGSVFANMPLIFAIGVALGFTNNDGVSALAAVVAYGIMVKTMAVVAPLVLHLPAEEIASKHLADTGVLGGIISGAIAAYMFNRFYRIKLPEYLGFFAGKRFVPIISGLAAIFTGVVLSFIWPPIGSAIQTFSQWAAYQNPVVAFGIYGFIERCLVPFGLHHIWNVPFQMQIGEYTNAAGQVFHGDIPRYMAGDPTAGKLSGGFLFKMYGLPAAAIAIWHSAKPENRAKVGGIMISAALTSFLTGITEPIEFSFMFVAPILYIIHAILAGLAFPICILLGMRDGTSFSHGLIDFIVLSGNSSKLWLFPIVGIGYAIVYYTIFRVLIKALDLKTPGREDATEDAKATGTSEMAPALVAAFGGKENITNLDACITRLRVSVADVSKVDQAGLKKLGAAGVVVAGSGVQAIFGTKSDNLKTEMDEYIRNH

[2] = biological target: T1, IICB^Glc; experiment: nanoDSF thermal shift (Tycho NT.[…]); format: binding; conditions: 10 mM ligand, 4 µM protein, 20 mM HEPES-NaOH pH 8.0, 150 mM NaCl, 5 mM β-ME, 0.02% DDM; remark: listed apart in the source

In the case of `OC[C@H]1OC[C@H](O)[C@@H](O)[C@@H]1O` [1-deoxy-glucose], the ΔTi [1] was 1-deoxy-glucose and 1-O-methyl-glucose bound best.

With `OC[C@H]1OC(O)[C@H](O)[C@@H](O)[C@@H]1O` (stereo partly drawn) [D-glucose] the ΔTi [2] was “~ almost 10 °C”.

`OC[C@H]1O[C@H](O[C@H]2[C@H](O)[C@@H](O)C(O)O[C@@H]2CO)[C@H](O)[C@@H](O)[C@@H]1O` (stereo partly drawn) [D-maltose] was tested, and the ΔTi [1] was “induced a slight stabilization of IICB^Glc”.

`COC1O[C@H](CO)[C@@H](O)[C@H](O)[C@H]1O` (stereo partly shown) [1-O-methyl-glucose] was tested, and the ΔTi [1] was 1-deoxy-glucose and 1-O-methyl-glucose bound best.
